Assay results reported in paper PMC3707170, “Polyketides from a Marine-Derived Fungus Xylariaceae sp” (Marine Drugs, 2013).
≈ marks a conversion by molar mass, not a printed value. Where two headings read alike, the source gives them in different places.

Columns and labels:
cathepsin B = target: T1, cathepsin B (Homo sapiens, UniProt P07858); experiment: Cathepsin B activity assay (fluorogenic Z-Arg-Arg-AMC substrate); type: biochemical; settings: cathepsin B from human liver; read-out: IC50, inhibitory activity towards cathepsin B
T1 construct: cathepsin B from human liver (Sigma); purchased Sigma; host or cells: human liver (tissue-purified)
Protocol: (§1) Enzyme-inhibitory activity assays were tested according to literatures reported.
Figure S32. IR spectrum of 8-methoxy-1-naphthyl-1-(6′-O-acetyl)-α-glucopyranoside (10).
S1. Enzyme Inhibitory Assay
S1.1. Cathepsin B Activity Assay
The assay was performed in 96-well plate according to a published method with modification.
Brifely, 50 μL reaction buffer (100 mM sodium acetate (pH 5.5), 1 mM EDTA, 4 mM dithiothreitol) containing 0.0025 unit of cathepsin B from human liver (Sigma, one unit will liberate 1 nanomole of 7-amino-4-methylcoumarin from Z-Arg-Arg 7-amido-4-methylcoumarin per min at pH 6.0 at 40 °C) and 2 μL test compounds dissolved in DMSO were added to each well of a 96-well plate. After preincubation for 15 min at room temperature, 50 μL of reaction buffer containing 100 μM Z-Arg-Arg-7-amido-4-methylcoumarin (Sigma) was added and incubated for 30 min at room temperature.
Fluorescence was measured using a microplate reader (Wallac 1420 Victor 2, PerkinElmer, HolIand) with an excitation of 355 nm and emission at 460 nm.
His-taged human IMPDH П was recombinantly expressed in Escherichia coli and purified by Ni-NTA affinity chromotagraphy as described previously. The IMPDH activity assay was performed in 200-μL assay volume of 96-well plate. Briefly, 2 μL of test compound (dissolved in DMSO) or DMSO and 150 μL enzyme buffer containing 100 mM KH2PO4, 0.5 mM EDTA pH 8, and 2 mM dithiothreitol and 50 nM IMPDH were added into the plate and incubated at 37 °C for 15 min. The reaction was initiated by adding 50 μL reaction buffer containing a final concentration of 200 μM inosine 5-monophosphate (Sigma) and 200 μM NAD (Sigma). The OD was read at 340 nm after incubation at 37 °C for 30 min with a microplate reader (Wallac 1420 Victor 2, PerkinElmer, HolIand).
(1 picture or pasted object on this page, not shown here)

IMPDH = target: T2, IMPDH (Homo sapiens, UniProt P12268); experiment: IMPDH enzyme assay (OD at 340 nm); type: biochemical; settings: recombinant human IMPDH II; read-out: IC50, inhibitory activity towards IMPDH
T2 construct: His tag; made in house; host or cells: Escherichia coli

SHP2 = target: T3, SHP2 (Homo sapiens, UniProt Q06124); experiment: SHP2 activity assay (pNPP substrate); type: biochemical; settings: human recombinant enzyme, read-out: IC50, inhibitory activity towards SHP2
T3 construct: made in house; host or cells: E. coli
T3 sequence (Q06124 1-593): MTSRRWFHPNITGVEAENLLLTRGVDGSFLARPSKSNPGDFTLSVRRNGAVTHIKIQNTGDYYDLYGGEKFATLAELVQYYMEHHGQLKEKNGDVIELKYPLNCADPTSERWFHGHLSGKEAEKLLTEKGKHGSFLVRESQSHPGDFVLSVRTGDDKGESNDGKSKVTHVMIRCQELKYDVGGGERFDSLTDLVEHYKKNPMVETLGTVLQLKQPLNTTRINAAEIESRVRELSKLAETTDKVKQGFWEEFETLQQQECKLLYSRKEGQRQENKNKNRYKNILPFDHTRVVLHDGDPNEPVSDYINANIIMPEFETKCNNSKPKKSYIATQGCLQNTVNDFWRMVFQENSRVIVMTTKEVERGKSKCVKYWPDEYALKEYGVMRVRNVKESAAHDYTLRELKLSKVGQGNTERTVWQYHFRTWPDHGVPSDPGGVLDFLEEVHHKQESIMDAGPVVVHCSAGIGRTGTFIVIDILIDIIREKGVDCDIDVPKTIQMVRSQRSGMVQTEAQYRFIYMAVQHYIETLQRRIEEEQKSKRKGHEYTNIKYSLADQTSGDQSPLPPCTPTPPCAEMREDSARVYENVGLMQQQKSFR
Protocol: as §1
S1.3. PTP1B and SHP2 Activity Assays
Human recombinant PTP1B and SHP2 were expressed in E. coli and purifed by Ni-NTA affinity chromotagraphy in our laboratory, respectively. The enzyme activity was measured using p-nitrophenyl phosphate (pNPP) as substrate in a 96-well plate. Brifely, purified recombinant PTP1B or SHP2 (0.05 μg) in 50 μL buffer containing 50 mM citrate (pH 6.0), 0.1 M NaCl, 1 mM EDTA, and 1 mM dithiothreitol (DTT) and test compounds were added to each well of a 96-well plate. After preincubation for 15 min at room temperature, 50 μL of reaction buffer containing 2 mM pNPP was added and incubated at 37 °C for 30 min. The PTP1B or SHP2 activity was measured by detecting the absorbance at 405 nm for the amount of produced p-nitrophenol.
(§2) S2. Larval Settlement Bioassays
(§3) Antifouling activity of compounds was evaluated in settlement inhibition assays with laboratory-reared B. neritina larvae. Larval settlement bioassays were performed using sterile 24-well polystyrene plates as previously reported. Briefly, the stock solution of tested samples in DMSO was diluted with autoclaved filtered sea water (FSW) to concentrations ranging from 1 to 300 ppm. Then the EC50 and LC50 values of active compounds were calculated. In this way, about 20 competent larvae were added to each well in 1 mL of the test solution. Wells containing only FSW with DMSO served as the controls.
(§4) Three replicates of each treatment were used. The plates were incubated at 27 °C for 1 h. The percentage of larval settlement was determined by counting the settled, live individuals under a dissecting microscope and expressing the result as a proportion of the total number of larvae in the well. EC50 (inhibits 50% of settlement of B. neritina larvae in comparison with the control) and LC50 (refers to the concentration that kills 50% of the test organisms in comparison with the control) levels of active compounds were calculated by using the Excel software program.

Bugula neritina larvae = experiment: Larval settlement (antifouling) bioassay; settings: for LC50/EC50: B. neritina larvae, ratio of lethal to settlement-inhibiting concentration; for EC50: Bugula neritina, 1 h, read-out: EC50, antifouling activity against B. neritina larvae settlement
Protocol: Larval culture and larval settlement assays matched the method reported in reference. […]
as §2, §3, §4

PTPlB = target: T4, PTPlB (Homo sapiens, UniProt P18031); experiment: PTP1B activity assay (pNPP substrate); type: biochemical; settings: human recombinant enzyme, read-out: IC50, inhibitory activity towards PTPlB
T4 construct: made in house; host or cells: E. coli
T4 sequence (P18031 1-435): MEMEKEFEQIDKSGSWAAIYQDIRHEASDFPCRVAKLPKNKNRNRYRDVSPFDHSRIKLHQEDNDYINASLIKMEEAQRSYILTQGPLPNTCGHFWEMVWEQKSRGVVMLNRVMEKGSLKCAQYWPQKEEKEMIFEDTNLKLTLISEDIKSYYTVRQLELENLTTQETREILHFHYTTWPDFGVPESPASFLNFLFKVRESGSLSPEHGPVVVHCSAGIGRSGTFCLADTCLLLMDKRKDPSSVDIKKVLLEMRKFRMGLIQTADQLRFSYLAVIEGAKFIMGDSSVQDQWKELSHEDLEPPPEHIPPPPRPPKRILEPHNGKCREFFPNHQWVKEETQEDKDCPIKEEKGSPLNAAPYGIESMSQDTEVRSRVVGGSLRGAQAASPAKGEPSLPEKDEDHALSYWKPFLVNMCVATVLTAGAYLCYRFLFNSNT

[1] = parameters: method as in doi:10.1016/j.tet.2009.02.054; settings: previous studies ref 23; cited from earlier work

| SMILES | IC50 (cathepsin B) | IC50 (IMPDH) | IC50 (SHP2) | LC50/EC50 (Bugula neritina larvae) | further results |
| --- | --- | --- | --- | --- | --- |
| Cc1c(O)c(C(=O)O)c(O)c2c1[C@H](C)[C@@H](C)OC2=O [Compound 4, dihydrocitrinone] | 28.5 ± 1.7 µM |  |  |  |  |
| Cc1c2c(c3oc4cc(=O)c(C)c5c-4c(c3c1O)O[C@H](C)[C@H]5C)O[C@H](C)[C@H]2C [Compound 6, dicitrinin A] |  | 98.7 ± 6.2 µM | 58.4 ± 4 µM | > 56 | EC50 (Bugula neritina larvae): 1.76 ± 0.8 µg/mL (≈ 4.63 µM) |
| Cc1c([C@H](C)[C@@H](C)O)cc(O)c(C(=O)O)c1O [Compound 7, phenol A acid] | 20.4 ± 1.9 µM |  |  | > 15 | EC50 (Bugula neritina larvae; 27 °C): 14.3 ± 1.72 µg/mL (≈ 59.7 µM) |
| O=C1C[C@@H](O)[C@@H](O)c2cccc(O)c21 [Compound 17, (3R,4S)-(+)-4-hydroxy-6-deoxyscytalone] |  | 41.2 ± 3.6 µM | 4.1 ± 0.6 µM |  | IC50 (PTPlB): 13.9 ± 1.8 µM; phytotoxicity (in words) [1]: phytotoxic substance |
| CC(=O)N[C@@H](CC(C)C)C(=O)N[C@@H](CC(C)C)C(=O)N[C@H](C=O)CCCNC(=N)N [leupeptin, reference compound] | 0.03 µM |  |  |  |  |
| C[C@H]1[C@H](C)CC[C@]2(C(=O)O)CC[C@]3(C)C(=CC[C@@H]4[C@@]5(C)CC[C@H](O)C(C)(C)[C@@H]5CC[C@]43C)[C@H]12 [ursolic acid, reference compound] |  |  | 2.8 µM |  |  |
